18 compounds from patent US20240050428A1 (Cullgen (Shanghai), Inc., priority 2020, published 2024) can be followed below.

Assay [1] deals with MOLM-13 cells. The assay is described as follows: Cell viability assay (CellTiter-Glo) in MOLM-13 cells, alone or with gilteritinib. The conditions noted are these: MOLM-13 cells, three days, CellTiter-Glo. The class given is cell-based. (In general: Cellular ATP, detected with luciferase, serves as a proxy for viable cell number.)
For assay [2], the system named is MV4;11 cells. Put plainly: Cell viability assay (CellTiter-Glo) in MV4;11 cells, alone or with gilteritinib. The conditions noted are these: MV4;11 cells, three days, CellTiter-Glo, read-out: MV4. The class given is cell-based.
Setting [3] is: Homo sapiens, MOLM-13, 72 h, compound alone (without gilteritinib), read-out: MOLM-13 IC50.
Setting [4] is: Homo sapiens, MOLM-13, 72 h, compound with gilteritinib 20 nM, read-out: MOLM-13 IC50 gilteritinib.
[5] abbreviates: Homo sapiens, MV4-11, 72 h, compound alone (without gilteritinib), 11 IC50.
The mark [6] stands for this setting: Homo sapiens, MV4-11, 72 h, compound with gilteritinib 10 nM, 11 IC50 gilteritinib.

Read-outs that look alike come from different tables or passages of the source. Some results are limits rather than exact numbers.

Turning to `O=C1CCC(N2C(=O)c3ccc(NC[C@H]4C[C@H](n5cc(-c6cnc7ccccc7n6)c(C6CC6)n5)C4)cc3C2=O)C(=O)N1` (stereo partly drawn) [GS-579, 5-(((trans-3-(3-Cyclopropyl-4-(quinoxalin-2-yl)-1H-pyrazol-1-yl)cyclobutyl)methyl)amino)-2-(2,6-dioxopiperidin-3-yl)isoindoline-1,3-dione], the IC50 in assay [1] (setting [3]), in assay [1] (setting [4]), in assay [2] (setting [5]) and in assay [2] (setting [6]) was less than 10 nM each time.

For the compound `O=C1CCC(N2C(=O)c3ccc(NCCC[C@H]4C[C@H](n5cc(-c6cnc7ccc(N8CCN(C9CCC9)CC8)cc7n6)cn5)C4)cc3C2=O)C(=O)N1` (stereo partly drawn) [GS-580, 5-((3-(trans-3-(4-(7-(4-Cyclobutylpiperazin-1-yl)quinoxalin-2-yl)-1H-pyrazol-1-yl)cyclobutyl)propyl)amino)-2-(2,6-dioxopiperidin-3-yl)isoindoline-1,3-dione], the IC50 was 10 to 100 nM in assay [1] (setting [3]), less than 10 nM in assay [1] (setting [4]), 10 to 100 nM in assay [2] (setting [5]) and less than 10 nM in assay [2] (setting [6]).

Turning to `C[C@@H]1CN(c2ccc3ncc(-c4cnn([C@H]5C[C@H](CCCNc6ccc7c(c6)C(=O)N(C6CCC(=O)NC6=O)C7=O)C5)c4)nc3c2)CCN1C` (stereo partly drawn) [GS-581, 5-((3-(trans-3-(4-(7-((R)-3,4-Dimethylpiperazin-1-yl)quinoxalin-2-yl)-1H-pyrazol-1-yl)cyclobutyl)propyl)amino)-2-(2,6-dioxopiperidin-3-yl)isoindoline-1,3-dione], the IC50 in assay [1] (setting [3]) is greater than 1000 nM; in assay [1] (setting [4]), less than 10 nM; in assay [2] (setting [5]) it was greater than 1000 nM; in assay [2] (setting [6]), 10 to 100 nM.

Take `O=C1CCC(N2C(=O)c3ccc(NCCC[C@H]4C[C@H](n5cc(-c6ccccn6)cn5)C4)cc3C2=O)C(=O)N1` (stereo partly drawn) [GS-582, 2-(2,6-Dioxopiperidin-3-yl)-5-((3-(trans-3-(4-(pyridin-2-yl)-1H-pyrazol-1-yl)cyclobutyl)propyl)amino)isoindoline-1,3-dione]: the IC50 is greater than 1000 nM in assay [1] (setting [3]), 10 to 100 nM in assay [1] (setting [4]), 100 to 1000 nM in assay [2] (setting [5]) and 10 to 100 nM in assay [2] (setting [6]).

Turning to `Cc1cccc(-c2cnn([C@H]3C[C@H](CCCNc4ccc5c(c4)C(=O)N(C4CCC(=O)NC4=O)C5=O)C3)c2)n1` (stereo partly drawn) [GS-584, 2-(2,6-Dioxopiperidin-3-yl)-5-((3-(trans-3-(4-(6-methylpyridin-2-yl)-1H-pyrazol-1-yl)cyclobutyl)propyl)amino)isoindoline-1,3-dione], the IC50 is 100 to 1000 nM in assay [1] (setting [3]), less than 10 nM in assay [1] (setting [4]), 10 to 100 nM in assay [2] (setting [5]) and 10 to 100 nM in assay [2] (setting [6]).

Regarding `O=C1CCC(N2C(=O)c3ccc(NCCC[C@H]4C[C@H](n5cc(-c6cnc7ccc(NC8COC8)cc7n6)cn5)C4)cc3C2=O)C(=O)N1` (stereo partly drawn) [GS-585, 2-(2,6-Dioxopiperidin-3-yl)-5-((3-(trans-3-(4-(7-(oxetan-3-ylamino)quinoxalin-2-yl)-1H-pyrazol-1-yl)cyclobutyl)propyl)amino)isoindoline-1,3-dione], the IC50 in assay [1] (setting [3]) is 10 to 100 nM; in assay [1] (setting [4]) it was less than 10 nM; in assay [2] (setting [5]) it was 10 to 100 nM; in assay [2] (setting [6]), less than 10 nM.

Consider `O=C1CCC(N2C(=O)c3ccc(NCCC[C@H]4C[C@@H](n5cc(-c6cnc7cc(NC8COC8)ccc7n6)c(C6CC6)n5)C4)cc3C2=O)C(=O)N1` (stereo partly drawn) [GS-586, 5-((3-(Cis-3-(3-cyclopropyl-4-(6-(oxetan-3-ylamino)quinoxalin-2-yl)-1H-pyrazol-1-yl)cyclobutyl)propyl)amino)-2-(2,6-dioxopiperidin-3-yl)isoindoline-1,3-dione], for which the IC50 was 10 to 100 nM in assay [1] (setting [3]), less than 10 nM in assay [1] (setting [4]), 10 to 100 nM in assay [2] (setting [5]) and less than 10 nM in assay [2] (setting [6]).

For the compound `O=C1CCC(N2C(=O)c3ccc(NCCC[C@H]4C[C@H](n5cc(-c6cnc7ccc(N8CCN(CC(F)(F)F)CC8)cc7n6)cn5)C4)cc3C2=O)C(=O)N1` (stereo partly drawn) [GS-587, 2-(2,6-Dioxopiperidin-3-yl)-5-((3-(trans-3-(4-(7-(4-(2,2,2-trifluoroethyl)piperazin-1-yl)quinoxalin-2-yl)-1H-pyrazol-1-yl)cyclobutyl)propyl)amino)isoindoline-1,3-dione], the IC50 in assay [1] (setting [3]) was 100 to 1000 nM; in assay [1] (setting [4]) it was less than 10 nM; in assay [2] (setting [5]), 10 to 100 nM; in assay [2] (setting [6]), less than 10 nM.

For `O=C1CCC(N2C(=O)c3ccc(NC[C@H]4C[C@H](n5ccc(C6CC6)n5)C4)cc3C2=O)C(=O)N1` (stereo partly drawn) [GS-588, 5-(((trans-3-(3-Cyclopropyl-1H-pyrazol-1-yl)cyclobutyl)methyl)amino)-2-(2,6-dioxopiperidin-3-yl)isoindoline-1,3-dione], the IC50 is 10 to 100 nM in assay [1] (setting [3]), 100 to 1000 nM in assay [1] (setting [4]), greater than 1000 nM in assay [2] (setting [5]) and greater than 1000 nM in assay [2] (setting [6]).

In the case of `Cc1cccc(-c2cn([C@H]3C[C@H](CNc4ccc5c(c4)C(=O)N(C4CCC(=O)NC4=O)C5=O)C3)nc2C2CC2)n1` (stereo partly drawn) [GS-589, 5-(((trans-3-(3-Cyclopropyl-4-(6-methylpyridin-2-yl)-1H-pyrazol-1-yl)cyclobutyl)methyl)amino)-2-(2,6-dioxopiperidin-3-yl)isoindoline-1,3-dione], the IC50 was 10 to 100 nM in assay [1] (setting [3]), less than 10 nM in assay [1] (setting [4]), 10 to 100 nM in assay [2] (setting [5]) and less than 10 nM in assay [2] (setting [6]).

As for `O=C1CCC(N2C(=O)c3ccc(NC[C@H]4C[C@H](n5nccc5C5CC5)C4)cc3C2=O)C(=O)N1` (stereo partly drawn) [GS-590, 5-(((trans-3-(5-cyclopropyl-1H-pyrazol-1-yl)cyclobutyl)methyl)amino)-2-(2,6-dioxopiperidin-3-yl)isoindoline-1,3-dione], the IC50 was less than 10 nM in assay [1] (setting [3]), 100 to 1000 nM in assay [1] (setting [4]), greater than 1000 nM in assay [2] (setting [5]) and 100 to 1000 nM in assay [2] (setting [6]).

Consider `O=C1CCC(N2C(=O)c3ccc(NCCC[C@H]4C[C@H](n5ccc(C6CC6)n5)C4)cc3C2=O)C(=O)N1` (stereo partly drawn) [GS-591, 5-((3-(trans-3-(3-Cyclopropyl-1H-pyrazol-1-yl)cyclobutyl)propyl)amino)-2-(2,6-dioxopiperidin-3-yl)isoindoline-1,3-dione], for which the IC50 in assay [1] (setting [3]) was greater than 1000 nM; in assay [1] (setting [4]) it was 100 to 1000 nM; in assay [2] (setting [5]), greater than 1000 nM; in assay [2] (setting [6]) it was 100 to 1000 nM.

Consider `Cc1cccc(-c2cn([C@H]3C[C@H](CCCNc4ccc5c(c4)C(=O)N(C4CCC(=O)NC4=O)C5=O)C3)nc2C2CC2)n1` (stereo partly drawn) [GS-592, 5-((3-(trans-3-(3-Cyclopropyl-4-(6-methylpyridin-2-yl)-1H-pyrazol-1-yl)cyclobutyl)propyl)amino)-2-(2,6-dioxopiperidin-3-yl)isoindoline-1,3-dione], for which the IC50 was 100 to 1000 nM in assay [1] (setting [3]), 10 to 100 nM in assay [1] (setting [4]), 10 to 100 nM in assay [2] (setting [5]) and less than 10 nM in assay [2] (setting [6]).

As for `O=C1CCC(N2C(=O)c3ccc(NCCC[C@H]4C[C@H](n5cc(-c6cnc7ccc(N8CCN(CC(F)(F)F)CC8)cc7n6)cn5)C4)cc3C2=O)C(=O)N1` (stereo partly drawn) [GS-593, 2-(2,6-Dioxopiperidin-3-yl)-5-((3-(trans-3-(4-(7-(4-(2,2,2-trifluoroethyl)piperazin-1-yl)quinoxalin-2-yl)-1H-pyrazol-1-yl)cyclobutyl)propyl)amino)isoindoline-1,3-dione], the IC50 is 100 to 1000 nM in assay [1] (compound alone (without gilteritinib), read-out: MOLM-13 IC50) and less than 10 nM in assay [2] (compound with gilteritinib 10 nM, 11 IC50 gilteritinib).

Take `CN1CC2CC1CN2c1ccc2ncc(-c3cn([C@H]4C[C@H](CCCNc5ccc6c(c5)C(=O)N(C5CCC(=O)NC5=O)C6=O)C4)nc3C3CC3)nc2c1` (stereo partly drawn) [GS-594, 5-((3-(trans-3-(3-Cyclopropyl-4-(7-((1R,4R)-5-methyl-2,5-diazabicyclo[2.2.1]heptan-2-yl)quinoxalin-2-yl)-1H-pyrazol-1-yl)cyclobutyl)propyl)amino)-2-(2,6-dioxopiperidin-3-yl)isoindoline-1,3-dione]: the IC50 in assay [1] (setting [3]) was 100 to 1000 nM; in assay [1] (setting [4]), less than 10 nM; in assay [2] (setting [5]) it was 10 to 100 nM; in assay [2] (setting [6]), less than 10 nM.

For `O=C1CCC(N2C(=O)c3ccc(NC[C@H]4C[C@H](n5cc(-c6ccccn6)c(C6CC6)n5)C4)cc3C2=O)C(=O)N1` (stereo partly drawn) [GS-595, 5-(((trans-3-(3-Cyclopropyl-4-(pyridin-2-yl)-1H-pyrazol-1-yl)cyclobutyl)methyl)amino)-2-(2,6-dioxopiperidin-3-yl)isoindoline-1,3-dione], the IC50 in assay [1] (setting [3]) lay in the range of 100 to 1000 nM; in assay [1] (setting [4]) it was 10 to 100 nM; in assay [2] (setting [5]) it was 100 to 1000 nM; in assay [2] (setting [6]) it was 10 to 100 nM.

As to `O=C1CCC(N2C(=O)c3ccc(NC[C@H]4C[C@H](n5cc(-c6cnccn6)c(C6CC6)n5)C4)cc3C2=O)C(=O)N1` (stereo partly drawn) [GS-596, 5-(((trans-3-(3-Cyclopropyl-4-(pyrazin-2-yl)-1H-pyrazol-1-yl)cyclobutyl)methyl)amino)-2-(2,6-dioxopiperidin-3-yl)isoindoline-1,3-dione], the IC50 in assay [1] (setting [3]) is greater than 1000 nM; in assay [1] (setting [4]), 100 to 1000 nM; in assay [2] (setting [5]), 100 to 1000 nM; in assay [2] (setting [6]), 100 to 1000 nM.

With `O=C1CCC(N2C(=O)c3ccc(NC[C@H]4C[C@H](n5cc(-c6cccnn6)c(C6CC6)n5)C4)cc3C2=O)C(=O)N1` (stereo partly drawn) [GS-597, 5-(((trans-3-(3-Cyclopropyl-4-(pyridazin-3-yl)-1H-pyrazol-1-yl)cyclobutyl)methyl)amino)-2-(2,6-dioxopiperidin-3-yl)isoindoline-1,3-dione], the IC50 in assay [1] (setting [3]) is greater than 1000 nM; in assay [1] (setting [4]), 100 to 1000 nM; in assay [2] (setting [5]), 10 to 100 nM; in assay [2] (setting [6]) it was greater than 1000 nM.
